Source: patent US7544666B2, “NAP derivatives” (Industrial Technology Research Institute, priority 2005, dated 2009)

Tests used:
[1] = test system: scopolamine-induced amnesia rats; test: Morris water maze in scopolamine-induced amnesia rats; format: in vivo, rat; conditions: 0.25 mg/kg subcutaneous, 5 min after scopolamine 1 mg/kg i.p.; FIG. 11
Description: Scopolamine-induced amnesia […] were used in combination of Morris water maze, a memory and behavior analysis system, to assess the in vivo effects of the NAP derivative BMEC-NAP0701 and NAP.
Sprague-Dawley male rats with body weight of 220-250 g obtained from the National Laboratory Animal Center, Taiwan, were caged in an air-conditioned housing with a temperature of 23±1° C. and kept on an alternating 12-hour light and 12-hour dark schedule with sufficient feed and water. […]
Morris Water Maze was performed with a water maze device containing a stainless pool with a size of 160 cm in diameter, 50 cm in height, and 15 mm in thickness of the wall and a platform with a size of 11 cm in diameter, and 22 cm in height. […] The swimming time and track were recorded by VEDEOMEX-V video tracing system, video recorder, and monitor (Columbus Instruments) and analyzed by Water Maze Program (Columbus Instruments). […]
Late of the third day: Two to four hours after the third day training, the platform was removed from the pool. The trained rats were separately sent to quadrant I and the swimming track was recorded for 60 sec. The time spent in finding the original platform was also recorded. […]
Early of the fifth day: The platform was placed in the quadrant II and submerged beneath water level about 1 cm. The rats were separately sent to quadrant I and the time spent in finding the platform was recorded. […]

[2] = Stability in Hanks' balanced salt solution (HBSS); format: physicochemical; conditions: 37° C., relative to initial conc. in HBSS = 100.00
Description: (§1) The stability of the NAP derivatives prepared by EXAMPLE 1 was measured with the system of human colon cancer cell, Caco-2 cell. Caco-2 cells (1×10^5 cells) were first seeded into a polycarbonate film on the upper layer of a 12-well Transwell and incubated for 18 to 26 days at 37° C. The TEER of the Caco-2 cell monolayer was measured over 350 Ω×cm^2. The stability of the NAP derivatives in the Hanks' balanced salt solutions (HBSS) was measured by the concentration changes of NAP and the NAP derivatives incubated in the HBSS at 37° C. for 4 hours. The stability of the NAP derivatives in the Caco-2 cell system was measured by the procedure described below. NAP and the NAP derivatives in the HBSS were added into the upper layer of the Caco-2 cell-seeded Transwell. After 4-hour incubation, the concentration of NAP and the NAP derivatives in the upper and lower layers was measured and analyzed in comparison with the initial concentration (500 μM) by reverse HPLC at 210 nm.

[3] = test system: Caco-2 cell; test: Stability in the Caco-2 cell system; format: in vitro ADME, human; conditions: 4-hour incubation in Caco-2 Transwell; relative to initial conc. = 100.00 (500 μM)
Description: as §1

[4] = test system: Caco-2 cell monolayer; test: Permeation to Caco-2 cell monolayer; format: in vitro ADME, human; design: unit not given here; conditions: 4-hour incubation, initial concentration 500 μM in upper layer
Description: The permeation of NAP and the NAP derivatives was examined using the Caco-2 cell system. Caco-2 cells (1×10^5 cells) were seeded into the polycarbonate film on the upper layer of a 12-well Transwell and incubated at 37° C. for 18 to 26 days. The TEER of the Caco cell monolayer was measured over 350 Ω×cm^2. NAP and the NAP derivatives in the HBSS were added into the upper layer of the Caco-2 cell-seeded Transwell. After 4-hour incubation, the concentration of NAP and the NAP derivatives in the upper and lower layers was measured and analyzed in comparison with the initial concentration (500 μM) by reverse phase HPLC at 210 nm.

Conc. after 4-hour in HBSS [2]: 98.62
Conc. after 4-hour in Caco-2 cells [3]: 78.97
Conc. at the lover layer [4]: 0.28
Structure (SMILES): CC[C@H](C)[C@H](NC(=O)[C@H](CO)NC(=O)[C@@H](NC(=O)[C@@H]1CCCN1C(=O)[C@H](C)NC(=O)[C@H](CC(N)=O)NC(=O)c1ccccc1)C(C)C)C(=O)N1CCC[C@H]1C(=O)N[C@@H](CCC(N)=O)C(=O)O [BMEC-NAP0701, Benzoyl-NAPVSIPQ-OH]
memory improving effect (time spent in finding the platform vs scopolamine-induced rats) [1]: memory improving effect similar to NAP in vivo
